Where two headings read alike, the source gives them in different places.
Tests used:
[1] = system: HIV-1 laboratory strain, NL4-3; experiment: MT-4 cytoprotection assay; assay type: cell-based
In short: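 MT-4 cells mock- or batch-infected with NL4-3 (MOI 0.0005) for 2 h, washed, then cultured 4 days with increasing compound concentrations. Viability read by WST-1 tetrazolium reduction: cytoprotection in infected cells, toxicity in mock-infected cells.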

[2] = system: HIV-1NL4-3; experiment: P4-MAGI assay; assay type: cell-based
In short: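 HeLa-derived CD4+ P4 cells carrying an LTR-driven lacZ were infected with HIV-1NL4-3 at MOI 1 with DEAE-Dextran, then compound added in increasing concentrations right after virus; infection reported as Tat-induced β-galactosidase. TC50 measured by WST-1 in mock-infected cells.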

[3] = Human immunodeficiency virus 1, NL43, MT4, 96 h, MT-4 cells, four days incubation, WST-1 readout, read-out: MT4 EC50
[4] = Human immunodeficiency virus 1, NL43, less than about 100 nm, read-out: MT-4 assay EC50 (concentration of compound that reduces the virus induced cytopathic effect by 50%)
[5] = Human immunodeficiency virus 1, 24 h, P4 cells, 24 hour incubation, β-galactosidase expression, read-out: P4-MAGI IC50
[6] = Human immunodeficiency virus 1, text statement, less than about 100 nm, read-out: P4-MAGI assay IC50

SMILES | EC50 [1, 3] [nM] | EC50 [1, 4] [nM] | IC50 [2, 5] [nM] | IC50 [2, 6] [nM]
C=C(C)[C@@H]1CC[C@]2(C(=O)NCc3cccc(C(=O)NCc4ccc(C(=O)O)cc4)c3)CC[C@]3(C)C(CCC4[C@@]5(C)CC[C@H](O)C(C)(C)C5CC[C@]43C)C12 (some centres unmarked) [Example 7] | 7.2 | < 100 | 21.4 | < 100
C=C(C)[C@@H]1CC[C@]2(C(=O)NCCc3cccc(C(=O)NCc4ccc(C(=O)NCCN5CCNCC5)cc4)c3)CC[C@]3(C)C(CCC4[C@@]5(C)CC[C@H](O)C(C)(C)C5CC[C@]43C)C12 (some centres unmarked) [Example 192] | 7 | – | 7 | –
C=C(C)[C@@H]1CC[C@]2(C(=O)NCc3cccc(C(=O)NCCc4ccc(S(N)(=O)=O)cc4)c3)CC[C@]3(C)C(CCC4[C@@]5(C)CC[C@H](O)C(C)(C)C5CC[C@]43C)C12 (some centres unmarked) [Example 45] | 94 | < 100 | 15.9 | < 100
C=C(C)[C@@H]1CC[C@]2(C(=O)NCc3cccc(C(=O)NCc4cccc(C(N)=O)c4)c3)CC[C@]3(C)C(CCC4[C@@]5(C)CC[C@H](O)C(C)(C)C5CC[C@]43C)C12 (some centres unmarked) [Example 23] | 329 | – | 52.7 | –
C=C(C)[C@@H]1CC[C@]2(C(=O)NCc3cccc(C(=O)NCc4ccc(C(=O)O)c(F)c4)c3)CC[C@]3(C)C(CCC4[C@@]5(C)CC[C@H](O)C(C)(C)C5CC[C@]43C)C12 (some centres unmarked) [Example 34] | 19 | < 100 | 24.3 | < 100
C=C(C)[C@@H]1CC[C@]2(C(=O)NCCc3cccc(C(=O)NCc4ccc(C(=O)N[C@H](CC(=O)OC)C(=O)OC)cn4)c3)CC[C@]3(C)C(CCC4[C@@]5(C)CC[C@H](O)C(C)(C)C5CC[C@]43C)C12 (some centres unmarked) [Example 221] | 35 | – | 9 | –
C=C(C)[C@@H]1CC[C@]2(C(=O)NCCc3cccc(C(=O)NCc4cccnc4C(=O)O)c3)CC[C@]3(C)C(CCC4[C@@]5(C)CC[C@H](O)C(C)(C)C5CC[C@]43C)C12 (some centres unmarked) [Example 230] | 300 | – | 56 | –
C=C(C)[C@@H]1CC[C@]2(C(=O)NCCc3cccc(C(=O)NCc4ccc(C(=O)NC(C(=O)O)C(N)C(=O)O)cn4)c3)CC[C@]3(C)C(CCC4[C@@]5(C)CC[C@H](O)C(C)(C)C5CC[C@]43C)C12 (some centres unmarked) [Example 225] | 53 | – | 38.5 | –
C=C(C)[C@@H]1CC[C@]2(C(=O)NCc3cccc(C(=O)NCCc4ccc(F)c(C(=O)O)c4)c3)CC[C@]3(C)C(CCC4[C@@]5(C)CC[C@H](O)C(C)(C)C5CC[C@]43C)C12 (some centres unmarked) [Example 32] | 3000 | – | 15 | < 100
C=C(C)[C@@H]1CC[C@]2(C(=O)NCCc3cccc(C(=O)NCc4ccc(C(=O)N[C@H](C(=O)O)C(C)C)cn4)c3)CC[C@]3(C)C(CCC4[C@@]5(C)CC[C@H](O)C(C)(C)C5CC[C@]43C)C12 (some centres unmarked) [Example 226] | 102 | – | 11.8 | –
C=C(C)[C@@H]1CC[C@]2(C(=O)NCc3ccnc(C(=O)NCCc4ccc(C(=O)O)cc4)c3)CC[C@]3(C)C(CCC4[C@@]5(C)CC[C@H](O)C(C)(C)C5CC[C@]43C)C12 (some centres unmarked) [Example 92] | 4870 | – | 121 | –
C=C(C)[C@@H]1CC[C@]2(C(=O)NCc3cccc(C(=O)NCc4ccc(C(=O)O)s4)c3)CC[C@]3(C)C(CCC4[C@@]5(C)CC[C@H](O)C(C)(C)C5CC[C@]43C)C12 (some centres unmarked) [Example 35] | 85 | < 100 | 53.2 | < 100
C=C(C)[C@@H]1CC[C@]2(C(=O)NCCc3cccc(C(=O)NCc4cccnc4C(=O)OC)c3)CC[C@]3(C)C(CCC4[C@@]5(C)CC[C@H](O)C(C)(C)C5CC[C@]43C)C12 (some centres unmarked) [Example 229] | 44 | – | 7 | –
C=C(C)[C@@H]1CC[C@]2(C(=O)NCCc3cccc(C(=O)NCc4ccc(C(=O)N[C@H](CO)C(=O)OC)cc4)c3)CC[C@]3(C)C(CCC4[C@@]5(C)CC[C@H](O)C(C)(C)C5CC[C@]43C)C12 (some centres unmarked) [Example 175] | 4 | – | 13 | –
C=C(C)[C@@H]1CC[C@]2(C(=O)NCCc3cccc(C(=O)NCC4CCC(C(=O)OC)CC4)c3)CC[C@]3(C)C(CCC4[C@@]5(C)CC[C@H](O)C(C)(C)C5CC[C@]43C)C12 (some centres unmarked) [Example 210] | 33 | – | 30.8 | –
C=C(C)[C@@H]1CC[C@]2(C(=O)NCCc3cccc(C(=O)NCc4ccccc4)c3)CC[C@]3(C)C(CCC4[C@@]5(C)CC[C@H](O)C(C)(C)C5CC[C@]43C)C12 (some centres unmarked) [Example 199] | 297 | – | 53.2 | –
C=C(C)[C@@H]1CC[C@]2(C(=O)NCCc3cccc(C(=O)NCCc4c[nH]c5ccccc45)c3)CC[C@]3(C)C(CCC4[C@@]5(C)CC[C@H](O)C(C)(C)C5CC[C@]43C)C12 (some centres unmarked) [Example 151] | 325 | – | 85 | –

SMILES | EC50 [1, 3] [nM] | EC50 [1, 4] [nM] | IC50 [2, 5] [nM] | IC50 [2, 6] [nM]
C=C(C)[C@@H]1CC[C@]2(C(=O)NCc3cc(C(=O)NCCc4ccc(C(=O)OC)cc4)ccc3F)CC[C@]3(C)C(CCC4[C@@]5(C)CC[C@H](O)C(C)(C)C5CC[C@]43C)C12 (some centres unmarked) [Example 96] | 3.5 | < 100 | 33 | < 100
C=C(C)[C@@H]1CC[C@]2(C(=O)NCc3cccc(C(=O)NCc4ccc(OCCCC(=O)O)c(C(=O)O)c4)c3)CC[C@]3(C)C(CCC4[C@@]5(C)CC[C@H](O)C(C)(C)C5CC[C@]43C)C12 (some centres unmarked) [Example 117] | 384 | – | 76 | < 100
C=C(C)[C@@H]1CC[C@]2(C(=O)NCCc3cccc(C(=O)NCc4ccc(O)cc4)c3)CC[C@]3(C)C(CCC4[C@@]5(C)CC[C@H](O)C(C)(C)C5CC[C@]43C)C12 (some centres unmarked) [Example 188] | 37 | – | 12 | –
C=C(CSCCC(=O)O)[C@@H]1CC[C@]2(C(=O)NCCc3cccc(C(=O)NCc4ccc(C(=O)O)cc4)c3)CC[C@]3(C)C(CCC4[C@@]5(C)CC[C@H](O)C(C)(C)C5CC[C@]43C)C12 (some centres unmarked) [Example 268] | 411 | – | 104 | –
C=C(C)[C@@H]1CC[C@]2(C(=O)NCCc3cccc(C(=O)NCc4ccc(OCCCn5cncc5C(=O)OC)cc4)c3)CC[C@]3(C)C(CCC4[C@@]5(C)CC[C@H](O)C(C)(C)C5CC[C@]43C)C12 (some centres unmarked) [Example 234] | 27 | – | 18.5 | –
C=C(C)[C@@H]1CC[C@]2(C(=O)NCCc3cccc(S(=O)(=O)NCc4ccc(C(=O)O)cc4)c3)CC[C@]3(C)C(CCC4[C@@]5(C)CC[C@H](O)C(C)(C)C5CC[C@]43C)C12 (some centres unmarked) [Example 251] | 258 | – | 68 | –
C=C(C)[C@@H]1CC[C@]2(C(=O)NCc3cccc(C(=O)NCCc4cccc(C(=O)O)c4F)c3)CC[C@]3(C)C(CCC4[C@@]5(C)CC[C@H](O)C(C)(C)C5CC[C@]43C)C12 (some centres unmarked) [Example 36] | 8.5 | < 100 | 16.4 | < 100
C=C(C)[C@@H]1CC[C@]2(C(=O)NCCc3cccc(C(=O)NCc4ccc(C(=O)OC)cc4)c3F)CC[C@]3(C)C(CCC4[C@@]5(C)CC[C@H](O)C(C)(C)C5CC[C@]43C)C12 (some centres unmarked) [Example 93] | 40 | < 100 | 33.9 | < 100
C=C(C)[C@@H]1CC[C@]2(C(=O)NCc3cccc(C(=O)NCc4cccc(C(=O)O)c4F)c3)CC[C@]3(C)C(CCC4[C@@]5(C)CC[C@H](O)C(C)(C)C5CC[C@]43C)C12 (some centres unmarked) [Example 41] | 1.9 | < 100 | 36.7 | < 100
C=C(C)[C@@H]1CC[C@]2(C(=O)NCCc3cccc(C(=O)NCc4ccc(C(=O)OC)cn4)c3)CC[C@]3(C)C(CCC4[C@@]5(C)CCC(=O)C(C)(C)C5CC[C@]43C)C12 (some centres unmarked) [Example 201] | 15.5 | – | 28.8 | –
C=C(C)[C@@H]1CC[C@]2(C(=O)NCCc3cccc(C(=O)N[C@@H](C)c4cccc[n+]4[O-])c3)CC[C@]3(C)C(CCC4[C@@]5(C)CC[C@H](O)C(C)(C)C5CC[C@]43C)C12 (some centres unmarked) [Example 275] | 1000 | – | 180 | –
C=C(C)[C@@H]1CC[C@]2(C(=O)NCc3cccc(C(=O)NCCc4ccc(C(=O)O)c(F)c4)c3)CC[C@]3(C)C(CCC4[C@@]5(C)CC[C@H](O)C(C)(C)C5CC[C@]43C)C12 (some centres unmarked) [Example 40] | 6.3 | < 100 | 19.9 | < 100
C=C(C)[C@@H]1CC[C@]2(C(=O)NCCc3cccc(C(=O)N[C@@H](CC(C)C)[C@@H](O)CC(=O)O)c3)CC[C@]3(C)C(CCC4[C@@]5(C)CC[C@H](O)C(C)(C)C5CC[C@]43C)C12 (some centres unmarked) [Example 65] | 83 | < 100 | 156 | –
C=C(C)[C@@H]1CC[C@]2(C(=O)NCc3cccc(C(=O)NCc4ccc(N(C)C)cc4)c3)CC[C@]3(C)C(CCC4[C@@]5(C)CC[C@H](O)C(C)(C)C5CC[C@]43C)C12 (some centres unmarked) [Example 47] | 41.3 | < 100 | 36.3 | < 100
C=C(C)[C@@H]1CC[C@]2(C(=O)NCCc3cccc(C(=O)NCc4ccc(C(=O)N[C@@H](C(=O)OC)[C@H](C)O)cc4)c3)CC[C@]3(C)C(CCC4[C@@]5(C)CC[C@H](O)C(C)(C)C5CC[C@]43C)C12 (some centres unmarked) [Example 161] | 15 | – | 15 | –
C=C(C)[C@@H]1CC[C@]2(C(=O)NCCc3cccc(C(=O)NCc4ccc(C(=O)N5CCN(C(=O)OC(C)(C)C)C(C(=O)OC)C5)cc4)c3)CC[C@]3(C)C(CCC4[C@@]5(C)CC[C@H](O)C(C)(C)C5CC[C@]43C)C12 (some centres unmarked) [Example 183] | 108 | – | 44 | –
C=C(C)[C@@H]1CC[C@]2(C(=O)NCCc3cccc(C(=O)Nc4cc(C(=O)O)ccc4N)c3)CC[C@]3(C)C(CCC4[C@@]5(C)CC[C@H](O)C(C)(C)C5CC[C@]43C)C12 (some centres unmarked) [Example 61] | 2300 | – | 65 | < 100

From patent publication US20090275583A1, “ANTIVIRAL COMPOUNDS AND USE THEREOF” (Myriad Genetics, Incorporated, priority 2006, published 2009)
